Laboratory results taken from patent US7838288B2, “Modulators of odorant receptors” (Duke University, priority 2004, dated 2010).

Tests used:
[1] = test system: Eight other ORs located near the IVA locus; experiment: Luciferase assay, other ORs near the IVA locus; format: cell-based
Description: In experiments conducted during the course of the present invention, not only three class I ORs (S46, MOR23-1, MOR31-4) but also MOR203-1, a class II OR, responded to nonanoic acid. The present invention is not limited to a particular mechanism. Indeed, an understanding of the mechanism is not necessary to practice the present invention. […] Olfr62 is one of the closely related ORs located near or at the IVA locus, implicated in isovaleric acid sensation (see, e.g., Griff, I. C., and Reed, R. R. (1995) Cell 83, 407-414; Zhang, X., and Firestein, S. (2002) Nat Neurosci 5, 124-133; each herein incorporated by reference in their entireties). […] The present invention is not limited to a particular mechanism. Indeed, an understanding of the mechanism is not necessary to practice the present invention.
Dual-Glo system (Promega) for luciferase assay was used. CRE-Luciferase (Stratagene) was used to measure the receptor activities. Renilla luciferase driven by constitutively active SV40 promoter (pRL-SV40: Promega) was used as an internal control. […] Luminescence was measured using Wallac Victor 1420 (Perkin-Elmer). Normalized luciferase activity was calculated as [Luc (N)-Luc (0)]/RL (N), where Luc (N)=Luminescent count of a certain well, Luc (0)=Luminescent count without odorant for each OR, and RL (N)=Luminescent count of Renilla Luciferase of each well. […]

olfr62 = experiment: CRE-luciferase reporter gene assay, olfr62; format: cell-based, mouse; details: Hana3A cells
Description: Four ORs (S6/79, S18, S46 and S50) previously assayed using other techniques (see, e.g., Malnic, B., et al. (1999) Cell 96, 713-723; herein incorporated by reference in its entirety) were tested against an assay panel of aliphatic alcohols, aldehydes and acids and some other odorants. Additionally, five “orphan” class I ORs (MOR23-1, MOR31-4, MOR31-6, MOR32-5 and MOR32-11) whose cognate ligands were unknown were tested. At a suprathreshold concentration of 100 uM, all these ORs were odorant selective, responding to only a small subset of the odorants tested (see FIG. 11A). This specificity was retained at lower, more physiologically relevant concentrations. Many of these ORs responded to odorants present in micromolar concentrations. The cell-surface expression of these ORs by living-cell immunofluorescence were evaluated. Some ORs (S18, MOR31-4, MOR31-6 and MOR32-5) were strongly expressed while other ORs (S6, S50, MOR23-1, MOR32-11) were weakly expressed (see FIG. 12). The present invention is not limited to a particular mechanism. Indeed, an understanding of the mechanism is not necessary to practice the present invention. […] Finally, two additional orphan class II ORs, MOR203-1 and olfr62, were tested against a panel of 139 odorants. […] Olfr62 responded to coumarine and piperonal (see FIG. 11C). […] When parental 293T cells for these ORs were used in this luciferase assay, little or no response to the odorants was observed. The present invention is not limited to a particular mechanism. Indeed, an understanding of the mechanism is not necessary to practice the present invention.
Dual-Glo system (Promega) for luciferase assay was used. CRE-Luciferase (Stratagene) was used to measure the receptor activities. Renilla luciferase driven by constitutively active SV40 promoter (pRL-SV40: Promega) was used as an internal control. Cells were plated on poly-D-lysine coated 96 well plates (BIOCOAT, Beckton Dickinson). After 8 hours (for experiments shown in FIGS. 8B and 8C) or 12 hours (for experiments shown in FIG. 8D and FIG. 11) after transfection, the medium was replaced with CD293 chemically defined medium (Invitrogen) and the plates were incubated for one hour at 37 degrees C. The medium was replaced with 50 ul of odorant solutions dissolved in CD293 and incubated for 10 hours (for experiments shown in FIGS. 8B and 8C) or 4 hours (for experiments shown in FIG. 8D and FIG. 11) at 37 degrees C. The manufacture's protocol for measuring luciferase and Renilla luciferase activities was followed. Luminescence was measured using Wallac Victor 1420 (Perkin-Elmer). Normalized luciferase activity was calculated as [Luc (N)-Luc (0)]/RL (N), where Luc (N)=Luminescent count of a certain well, Luc (0)=Luminescent count without odorant for each OR, and RL (N)=Luminescent count of Renilla Luciferase of each well. For cAMP assays, cells were plated onto 24-well plate. […]. Prism software (Graphpad) was used for data analysis. […]

response of eight other ORs near the IVA locus to odorant [1]: none of them responded | response of olfr62 to odorant (luciferase) (olfr62): did not respond
SMILES: CC(C)CC(=O)O [isovaleric acid, Isovaleric acid]
